Reference: patent publication US20250161317A1, “MOLIDUSTAT FORMULATIONS AND METHODS OF USE FOR TREATMENT OF ANEMIA IN CATS” (ELANCO US INC., priority 2022, published 2025)
Where two headings read alike, the source gives them in different places.

Tests used:
Erythropoietin (EPO) [1] = assay: EPO plasma concentrations in healthy adult cats, daily oral dosing; format: in vivo, cat; conditions: 6 hours post treatment, all study days measured
Excerpt: (§1) This study evaluated the effects of molidustat on red blood cell parameters in healthy, adult cats, if administered daily via the oral route at different dosages and using different formulations of molidustat sodium. The hematocrit, erythropoietin (EPO) and molidustat plasma concentrations during the treatment phase were examined, with hematocrit representing the main outcome parameter.
(§2) Twenty-two adult cats were randomized to three treatment groups and one control group with 5 and 6 cats/group respectively (3 (2) male/3 female). After a baseline phase of two weeks the cats were orally treated in fasted condition once daily. […] The oily suspensions were in accordance with the oily suspension described in Example 1.
(§3) For evaluation of the hematological parameters blood samples were taken at regular intervals before, during and after the treatment phase. Additionally, plasma samples were collected at study day (SD) 0, SD 7 and SD 23 before and after treatment and analyzed for their concentration of EPO and molidustat.

healthy, adult cats [2] = assay: Pharmacodynamic effects on hematocrit in healthy adult cats, daily oral dosing; format: in vivo, cat
Excerpt: as §1, §2
To keep the application volume per kg bodyweight (BW) consistent for each animal the oily suspension of molidustat was available at two different concentrations (5% and 10%), so that each cat was treated with 0.1 mL/kg BW of the respective formulation.
as §3

healthy, adult cats [3] = assay: Tolerability and safety in healthy adult cats, daily oral dosing (Example 3); format: in vivo, cat; conditions: once daily oral
Excerpt: as §2
Treatments had no impact on the cats' body weight. None of the findings observed during the physical examinations or general health observations were rated as having a negative impact on the outcome of the study. The most frequently observed findings were vomiting of small amounts of fluid.

[4] = Plasma pharmacokinetic study after single oral administration to fasted and fed cats; format: in vivo, cat; conditions: for AUC / AUC(0-t) / Cmax / Tmax: female, European Shorthaired, plasma, po, 3 mg/kg; for AUC / AUC(0-t) / Cmax / Tmax / Clb / MRTint / Vz / t1//2: 3.0 mg molidustat sodium per kg; for AUC / AUC(0-t) / Cmax / Clb / MRTint / Vz / t1//2: geometric mean; for Tmax: median
Procedure: (§4) Four adult, healthy, female European Shorthaired cats were selected for the study. On the day prior to treatment feed was withdrawn to ensure a fasted prandial state for the oral treatment.
The pharmacokinetic profile of the HIF-PHI was determined in plasma of 3 adult, female, healthy European Shorthaired cats with a mean body weight of 3.5 kg (StD=0.41 kg). One animal was removed from the study due to difficult handling of the animal.
(§5) The animals were treated in a fasted prandial state with the test item at a single oral dose rate of 3.0 mg/kg. After a wash out period of 14 days the animals were treated with the test item at the same dose rate and same administration route, but in a fed prandial state. Frequent blood samplings at fixed intervals were performed over a period of 48 hours after each treatment.
The plasma samples were analyzed with regard to their concentrations of molidustat and its metabolite by HPLC using a tandem mass spectrometric detector (AB Sciex API 4000).
From the individual plasma concentration-time-profiles obtained pharmacokinetics (PK) were derived using non-compartmental analyses.

Erythropoietin (EPO) [5] = assay: Erythropoietin concentrations after single oral administration (Example 2); format: in vivo, cat; conditions: 6 hours after treatment, oral 3.0 mg/kg to fed or fasted cats
Procedure: as §4, §5
(§6) Peak and extent of plasma exposure of molidustat was higher if administered orally as sodium salt to cats at fasted prandial state compared to fed prandial state. Metabolized molidustat amounted to approximately 60% in total exposure independent of prandial state.

[6] = tested on: cats with anemia associated with CKD; assay: Placebo-controlled field study, efficacy (HCT/PCV) in cats with anemia associated with CKD; format: in vivo, cat
Excerpt: The objective of this study was to evaluate the safety and efficacy of molidustat to manage anemia associated with chronic kidney disease (CKD) in cats.
A total of 65 cats were screened at 11 US and 9 EU sites. Twenty-three (23) cats (13 cases from 9 sites in the US and 10 cases from 9 sites in the EU), with nearly equally distributed genders, mostly domestic shorthair breed, ranging in age from 4 to 17 years, and having initial body weights between 2 and 6 kilograms, were randomized and administered one of the two treatments. A total of 21 cats were included in the 28-day efficacy phase.

[7] = Plasma pharmacokinetics, oral bioavailability and dose proportionality after single oral dose; format: in vivo, cat; conditions: both sexes, geometric mean (CV)
Procedure: (§7) The test item was applied as single oral dose at the expected target dose rate of 5 mg molidustat sodium per kg bw, at 2.5 mg/kg and at 10 mg/kg to healthy adult cats. A single intravenous bolus dose of 5.0 mg/kg was applied for comparison using a suitable reference item (molidustat sodium aqueous solution 2.0% (m/v)).
(§8) Following a mixed serial/cross-over design, 16 healthy, adult cats (8 neutered males, 8 spayed females) were included in the study and allocated to […]. The animals were between 13.7 and 14.7 months old and weighed between 3.3 and 6.0 kg at start of the in-life phase.
(§9) The dose rates administered were at means of 2.42 mg/kg, 4.79, and 9.54 mg molidustat sodium per kg for the 0.5×, 1×, 2× dose groups, respectively. The reference item was dosed at an actual mean dose rate of 5.15 mg/kg. Dose rate calculations were based on the body weights determined prior to each study period.
(§10) Fifteen blood samples were drawn per animal after oral dosing (16 samples/animal after intravenous dosing) following a pre-determined schedule deemed suitable to describe the pharmacokinetic profile of the active substance contained in the test and reference item after single oral or intravenous dosing to cats.
(§11) Concentrations of the active substance molidustat and its major […] were analyzed by High Performance Liquid Chromatography/Tandem Mass Spectrometry in accordance with method 01469 (Krebber et al., Analytical method for the determination of BAY 85-3934 and its metabolite BAY 116-3348 in plasma by LC-MS/MS, BAG-CS report MR-15/109). The lower limit of quantitation was 5 μg/L for each substance.
(§12) Pharmacokinetic evaluation of plasma concentration data was based on the observed data using non-compartmental methods and comprised all PK-parameters to adequately describe the absorption, distribution and elimination phase of the active substance and its metabolite after oral or intravenous dosing with the test or reference item. For pharmacokinetic evaluation actual individual dose rates were used to account for the small differences between target and actual dose rates. All animals finished the in-life phase according to schedule.

[8] = Plasma pharmacokinetics after repeated once daily oral dosing of 2.5% (m/v) oily suspension; format: in vivo, cat; conditions: for AUC / Cmax / Tmax / half-life: both sexes, plasma, po, 4.8 mg/kg, 4.8 mg molidustat sodium per kg once daily oral, geometric mean (CV)
Procedure: Following a single group design, eight healthy, young adult cats (4 neutered males, 4 spayed females) were included in the study. The animals were between 14 and 15.5 months old and weighed between 3.35 and 4.95 kg at start of the in-life phase.
The dose rate administered was 4.8 mg molidustat sodium per kg. Dosing was once daily on 6 consecutive days keeping an interval of 24 h. Dose rate calculation was based on the body weights determined on SD-1 for all administrations.
Thirty-one blood samples were drawn per animal following a pre-determined schedule deemed suitable to describe the pharmacokinetic profile of the active substance contained in the test item after repeated dosing to cats.
Concentrations of the active substance molidustat and its major metabolite in plasma were analyzed by High Performance Liquid Chromatography/Tandem Mass Spectrometry. The lower limit of quantitation was 5 μg/L for each substance.
Pharmacokinetic evaluation of plasma concentration data was based on the observed data using non-compartmental methods and comprised all PK-parameters to adequately describe the absorption, distribution and elimination phase of the active substance and its metabolite after repeated dosing with the test item.

cats = assay: Clinical tolerance after two oral treatments (Example 2); format: in vivo; conditions: two oral treatments at 3.0 mg/kg in cats
Procedure: as §5, §6

[9] = Plasma pharmacokinetics after single intravenous bolus dose; format: in vivo, cat; conditions: for Vd: read-out: volume of distribution
Procedure: as §7, §8, §9, §10, §11, §12

[10] = tested on: cats with anemia associated with CKD; assay: Field study, in-use safety in cats with anemia associated with CKD
Procedure: This study was conducted using a single protocol in the United States (US, n=23 clinics) and Europe (EU, n=11 clinics) over a 10 month period. On study day (SD) −7 (±2 days), blood was collected for serum chemistry and hematology from cats that qualified for enrollment. After meeting enrollment criteria, cats were orally treated once daily for at least 28 consecutive days (SD 0 to SD 27) with either the control product (CP [vehicle]) or molidustat. The molidustat was administered orally at a dose of 5 mg/kg body weight (bw) (0.2 mL/kg bw). Blood was collected to assess hematological parameters on SDs 0, 7, 14, 21 and 28 (±2 days for all time points except SD 0). Blood was also collected for evaluating serum chemistry on SD 28 (±2 days), except creatinine. Hematocrit (HCT) and packed cell volumes (PCV, performed at each clinic) were the primary hematological parameters of interest. Individual animal treatment success was evaluated up to and including SD 28±2 using three different criteria, as well as using only the data on SD 28.

[11] = SD 21, baseline-controlled analysis
[12] = SD 28, baseline-controlled analysis
[13] = both sexes, plasma, 5 mg/kg, single intravenous bolus 5 mg molidustat sodium per kg
[14] = female, plasma, iv, 5 mg/kg, females
[15] = male, plasma, iv, 5 mg/kg, males

## [Na+].[O-]c1c(-n2ccnn2)cnn1-c1cc(N2CCOCC2)ncn1 [molidustat sodium, sodium 1-[6-(morpholin-4-yl)pyrimidin-4-yl]-4-(1H-1,2,3-triazol-1-yl)-1H-pyrazol-5-olate]
Erythropoietin (EPO) [1]
  EPO concentrations compared to the placebo group: significantly differed
healthy, adult cats [2]; 5 mg/kg once daily oral, at SD 14
  mean hematocrit compared to placebo: significantly higher
healthy, adult cats [2]; 10 mg/kg once daily oral, already at SD 7
  mean hematocrit compared to placebo: significantly higher
healthy, adult cats [2]; after cessation of treatment
  study day from which mean hematocrit was comparable to placebo group: SD 70
  study day on which mean hematocrit returned to levels within reference range: SD 56
healthy, adult cats [2]; all treated animals, for up to 42 days after treatment
  hematocrit relative to reference range: increase in hematocrit above the reference range
healthy, adult cats [3]; all study groups
  tolerability and safety: very well tolerated and safe
healthy, adult cats [3]
  impact on body weight: no impact

## O=c1c(-n2ccnn2)c[nH]n1-c1cc(N2CCOCC2)ncn1 [molidustat, 2-[6-(morpholin-4-yl)pyrimidin-4-yl]-4-(1H-1,2,3-triazol-1-yl)-2,3-dihydro-1H-pyrazol-3-one]
[4]; oral to fasted cats
  AUC: 8420 ng·h/mL
  AUC(0-t): 8410 ng·h/mL
  Cmax: 3130 ng/mL
  Tmax: 0.67 h
  Clb: 6 mL/min/kg
  MRTint: 3.7 h
  Vz: 3.74 L/kg
  t1//2: 7.28 h
[4]; oral to fed cats
  AUC: 6300 ng·h/mL
  AUC(0-t): 6280 ng·h/mL
  Cmax: 930 ng/mL
  Tmax: 1 h
  Clb: 8 mL/min/kg
  MRTint: 7.0 h
  Vz: 4.59 L/kg
  t1//2: 6.69 h
[4]; oral as sodium salt, 3.0 mg/kg
  peak and extent of plasma exposure, fasted compared to fed prandial state: higher
Erythropoietin (EPO) [5]
  Erythropoietin (EPO) concentrations: highly increased
[6]; 8 cats, 5 mg/kg or intermittent 2.5 mg/kg
  HCT and PCV levels throughout the continuation phase: maintained or increased
[6]; SD 14, p=0.0167
  PCV increase relative to baseline: 2.21%
[6]; SD 14, p=0.0643
  HCT increase relative to baseline: 1.87%
[6]; [11]
  HCT difference from average baseline: 3.91%
  PCV difference from average baseline: 3.46%
[6]; SD 21, p-values<0.01
  HCT and PCV results compared to the CP group: significantly greater
[6]; SD 21 and SD 28, once daily for 28 days at 5 mg/kg, anemic cats
  PCV/HCT in comparison to SD 0: significantly increased
[6]; [12]
  HCT difference from average baseline: 3.68%
  PCV difference from average baseline: 3.89%
[6]; SD 28, p<0.061
  HCT and PCV increases compared to the CP group: approached statistical significance
[7]; 2.5 mg/kg single oral dose
  AUC: 5600 ng·h/mL
  Cmax: 2700 ng/mL
  Tmax: 0.5 h
  half-life: 5 h
[7]; 5.0 mg/kg single oral dose
  AUC: 12700 ng·h/mL
  Cmax: 3830 ng/mL
  Tmax: 1 h
  half-life: 4.6 h
[7]; 10 mg/kg single oral dose
  AUC: 23500 ng·h/mL
  Cmax: 6730 ng/mL
  Tmax: 1 h
  half-life: 7.1 h
[8]; first dose
  AUC: 13300 ng·h/mL
  Cmax: 4460 ng/mL
  Tmax: 0.64 h
  half-life: 4.2 h
[8]; last (6th) dose
  AUC: 13300 ng·h/mL
  Cmax: 4100 ng/mL
  Tmax: 0.94 h
  half-life: 6.5 h
[8]; repeated once daily oral dosing, 6 days
  accumulation index: 1.1
cats
  clinical tolerance: clinically well tolerated without any clinical signs of intolerance
[9]; [13]
  clearance: 5.17 mL/min/kg
  Vd: 2.69 L/kg
[9]; both sexes, plasma, 5 mg/kg, single intravenous bolus 5 mg molidustat sodium per kg, read-out: elimination half-life (converted)
  half-life: 5.91 h
[9]; [14]
  clearance: 5.5 mL/min/kg
  Vd: 2.96 L/kg
[9]; [15]
  clearance: 5 mL/min/kg
  Vd: 2.36 L/kg
[9]; single intravenous bolus 5 mg molidustat sodium per kg (aqueous solution 2.0%)
  mean plasma exposure: 16350 ng·h/mL
[10]; alone or with concomitant medications for CKD
  treatment related adverse events: No treatment related adverse events
[10]; once daily for 28 days at 5 mg/kg
  tolerability of treatment: well tolerated
